From patent publication US6583146B1, “Thiazolopyrimidine compounds, its production and use” (Takeda Chemical Industries, Ltd., priority 1999, dated 2003)

Target: T1, human adenosine A3 receptor (Homo sapiens, UniProt P0DMS8)
T1 construct: expressed in transfected cells; membrane fraction used
T1 sequence (P0DMS8 1-318): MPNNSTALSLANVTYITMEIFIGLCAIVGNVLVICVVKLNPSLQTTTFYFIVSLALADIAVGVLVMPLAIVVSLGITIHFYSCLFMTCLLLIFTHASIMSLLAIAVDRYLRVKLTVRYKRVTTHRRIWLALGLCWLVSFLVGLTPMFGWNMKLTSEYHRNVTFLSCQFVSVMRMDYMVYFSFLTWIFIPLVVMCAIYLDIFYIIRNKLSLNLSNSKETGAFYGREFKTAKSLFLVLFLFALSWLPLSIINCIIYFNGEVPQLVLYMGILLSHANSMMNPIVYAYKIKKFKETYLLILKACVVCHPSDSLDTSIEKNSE
Experiment: Binding assays with adenosine A3 receptor ([3H]-NECA displacement, A3AR/CHO cell membranes)
Settings: [3H]-NECA as ligand; 100 μg/mL membranes of CHO cells expressing human adenosine A3 receptor; 1 hour at room temperature; read-out: IC50 (concentration that inhibits 50% specific binding of [3H]-NECA to the membrane)
Protocol: The following procedures in this Example were carried out according to the methods described in Molecular Cloning —Cold Spring Harbor Laboratory (1989) or protocol specified by manufacturers.
Cloning of the human adenosine A3 receptor gene was carried out by the polymerase chain reaction (PCR) from human brain cDNA. Using 1 ng of brain cDNA (Quick-Clone cDNA, TOYOBO, Osaka) as template, PCR was performed in DNA Thermal Cycler 480 (Perkin Elmer) (reaction conditions: 35 cycles of 1 min at 95° C., 1 min at 66° C., and 2 min at 75° C.) by mixing primers (50 pmol each),
5′-[…]-3′ [Sequence No. 1] and 5′-[…]-3′ [Sequence No. 2], which were designed referring to nucleotide sequence of adenosine A3 receptor gene reported by Salvatore et. al., (Proc. Natl. Acad. Sci. U. S. A., 90:10365-10369, 1993) and TaKaRa LA PCR Kit Ver.2 (TaKaRa Shuzo Co. Ltd., Kyoto). The PCR product was electrophoresed and 1.0 kb DNA fragment was recovered. The DNA fragment encoding adenosine A3 receptor was cloned using Original TA Cloning Kit (FUNAKOSHI, Tokyo).
Thus obtained plasmid was digested with Xba I (TaKaRa Shuzo Co. Ltd., Kyoto), blunted with T4 DNA polymerase (TaKaRa Shuzo Co. Ltd., Kyoto) and digested with Sal I (TaKaRa Shuzo Co. Ltd., Kyoto) to obtain adenosine A3 receptor gene fragment. […]

IC50: 3.5 nM
Structure (SMILES): COc1ccc(-c2c(-c3ccncc3)sc3nc(=O)cc(N)n23)cc1 [Example Compound 1, 5-Amino-3-(4-methoxyphenyl)-2-(4-pyridyl)-7H-thiazolo[3,2-a]pyrimidin-7-one]
